Experimental data taken from patent US10167292B2, “Benzodiazepines as bromodomain inhibitors” (Catalyst Therapeutics Pty Ltd, priority 2015, dated 2019).

Key:
HL-60 = experiment: Cell proliferation assay (CellTiter-Glo), HL-60; assay type: cell-based; settings: Homo sapiens, HL-60 cells, 72 h
Description: (§1) The cells were prepared in the required fashion (suspension or adherent). The cells were initially washed once in the culture medium that they would be finally treated in. Following this 10 ml of the test medium was added and the cells. The mixture was pipetted gently several times.
(§2) The cells were counted and then the volume was spun down to the volume necessary for the total number of cells needed. The cells were then resuspended in the appropriate test medium to the desired concentration. In general, the final concentration of non-adherent cells was 2×10^5 cells/ml i.e. 10,000 cells per 50 μ1. Once the desired concentration had been reached, 50 µl of the cells were added to the appropriate wells and the cells were incubated for 72 h at 37° C.
(§3) CellTiter-Glo Luminescent Assay (Kit G7571—See Promega's Instruction Manual for Additional Details):
(§4) Both reagents were pre-warmed to RT. The buffer was thawed in a 37° C. water bath until it had just completely thawed. It was then left on a bench at RT for at least 30 min.
(§5) Following this the substrate and buffer were mixed together. To ensure that the substrate was dissolved, the mixture was inverted several times.
(§6) The cell culture plates were removed from the incubator and were then allowed to adjust to RT for at least 30 min.
(§7) Afterwards 40 μL of the reagent was added to 100 μL of the culture medium. […] The plates were then incubated for 10 min on the bench. The luminescence could then be read using a luminescence plate reader.

BRD-4 (Domain 1) = BRD-4 (Domain 1) (Homo sapiens (Human), UniProt O60885); experiment: AlphaScreen BRD binding assay, BRD-4 (Domain 1); settings: acetyl-histone H4 peptide 2.5 nM, protein 80 nM
Description: (§8) Biological Characterization Assay Conditions Binding Assay
(§9) AlphaScreen streptavidin donor beads and AlphaScreen nickel chelate acceptor beads were added to a final concentration of 10 ug/mL each and allowed to incubate in a darkened environment for 1 h at RT. Plates were read on an EnVision plate reader (Perkin Elmer) and IC50's calculated using a four parameter non-linear curve fit.

BRD-4 (Domain 2) = BRD-4 (Domain 2) (Homo sapiens (Human), UniProt O60885); experiment: AlphaScreen BRD binding assay, BRD-4 (Domain 2); settings: acetyl-histone H4 peptide 2.5 nM, protein 80 nM
Description: as §8, §9

MV4; 11 = experiment: Cell proliferation assay (CellTiter-Glo), MV4;11; assay type: cell-based; settings: Homo sapiens, MV4;11 cells, 72 h
Description: as §1, §2, §3, §4, §5, §6, §7

BRD-2 (Domain 2) = BRD-2 (Domain 2) (Homo sapiens (Human), UniProt P25440); experiment: AlphaScreen BRD binding assay, BRD-2 (Domain 2); settings: 160 nM protein and 1.25 nM peptide
BRD-2 (Domain 2), sequence (P25440 344-453): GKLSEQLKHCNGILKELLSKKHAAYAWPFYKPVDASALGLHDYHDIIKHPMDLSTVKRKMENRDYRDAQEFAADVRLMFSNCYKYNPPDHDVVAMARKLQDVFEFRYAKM
Description: as §8, §9

BRD-2 (Domain 1) = BRD-2 (Domain 1) (Homo sapiens (Human), UniProt P25440); experiment: AlphaScreen BRD binding assay, BRD-2 (Domain 1); settings: acetyl-histone H4 peptide 2.5 nM, protein 80 nM
BRD-2 (Domain 1), sequence (P25440 74-180): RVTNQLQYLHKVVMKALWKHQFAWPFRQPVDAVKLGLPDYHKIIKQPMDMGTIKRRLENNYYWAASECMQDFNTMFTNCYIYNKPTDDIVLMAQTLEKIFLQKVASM
Description: as §8, §9

BRD-3 (Domain 1) = BRD-3 (Domain 1) (Homo sapiens (Human), UniProt Q15059); experiment: AlphaScreen BRD binding assay, BRD-3 (Domain 1); settings: acetyl-histone H4 peptide 2.5 nM, protein 80 nM
BRD-3 (Domain 1), sequence (Q15059 34-140): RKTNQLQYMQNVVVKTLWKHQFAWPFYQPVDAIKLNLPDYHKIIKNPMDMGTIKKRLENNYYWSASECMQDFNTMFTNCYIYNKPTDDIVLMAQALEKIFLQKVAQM
Description: as §8
BRD binding and inhibition was assessed by measuring the interaction of biotinylated acetyl-histone H4 peptide (Anaspec #64989) with the BRD target protein utilising AlphaScreen® technology (Perkin Elmer). In a white 384-well low volume plate (Greiner #784076), 100 nL of compound series in DMSO (0.5% final concentration) was added to the BRD target protein (80 nM final). After 30 min incubation at RT, H4 peptide was added to a final concentration of 2.5 nM. AlphaScreen streptavidin donor beads and AlphaScreen nickel chelate acceptor beads were added to a final concentration of 10 ug/mL each and allowed to incubate in a darkened environment for 1 h at RT. Plates were read on an EnVision plate reader (Perkin Elmer) and IC50's calculated using a four parameter non-linear curve fit.
These conditions are identical for all BRDs screened except BRD2D2 which uses 160 nM protein and 1.25 nM peptide.

| SMILES | IC50 (BRD-4 (Domain 1)) [nM] | IC50 (BRD-4 (Domain 2)) [nM] | IC50 (BRD-2 (Domain 2)) [nM] | IC50 (BRD-2 (Domain 1)) [nM] | IC50 (HL-60) [nM] | IC50 (MV4; 11) [nM] | IC50 (BRD-3 (Domain 1)) [nM] |
| --- | --- | --- | --- | --- | --- | --- | --- |
| Cc1nnn2c1-c1ccc(C(=O)Nc3ccccc3)cc1N(c1ccc(Cl)cc1)CC2 [Example 36, 7-(4-chlorophenyl)-1-methyl-N-phenyl-6,7-dihydro-5H-benzo[f][1,2,3]triazolo[1,5-d][1,4]diazepine-9-carboxamide] | – | – | – | – | < 1000 | < 1000 | < 100 |
| Cc1nnn2c1-c1ccc(C(=O)O)cc1N(c1ccc(Cl)cc1)CC2 [Example 32, 7-(4-chlorophenyl)-1-methyl-5,6-dihydrotriazolo[1,5-d][1,4]benzodiazepine-9-carboxylic acid] | – | – | < 100 | 100 to 1000 | > 5000 | < 1000 | < 100 |
| Cc1nnn2c1-c1ccc(C(=O)NC(C)c3ccc(F)cc3)cc1N(c1ccc(Cl)cc1)CC2 (stereo in doubt) [Example 33, 7-(4-chlorophenyl)-N—((R)-1-(4-fluorophenyl)ethyl)-1-methyl-6,7-dihydro-5H-benzo[f][1,2,3]triazolo[1,5-d][1,4]diazepine-9-carboxamide] | – | – | – | – | – | – | < 100 |
| Cc1nnn2c1-c1ccc(-c3nn[nH]n3)cc1N(c1ccc(Cl)cc1)CC2 [Example 51, 7-(4-chlorophenyl)-1-methyl-9-(2H-tetrazol-5-yl)-6,7-dihydro-5H-benzo[f][1,2,3]triazolo[1,5-d][1,4]diazepine] | < 100 | < 100 | – | – | > 5000 | < 1000 | – |
| Cc1nnn2c1-c1ccc(C(=O)NC(C)c3ccccc3)cc1N(c1ccc(Cl)cc1)CC2 (stereo in doubt) [Example 39, 7-(4-chlorophenyl)-1-methyl-N—((S)-1-phenylethyl)-6,7-dihydro-5H-benzo[f][1,2,3]triazolo[1,5-d][1,4]diazepine-9-carboxamide] | – | – | – | – | < 1000 | < 1000 | < 100 |
| Cc1nnn2c1-c1ccc(C(=O)NC(C)c3ccccc3)cc1N(c1ccc(Cl)cc1)CC2 (stereo in doubt) [Example 35, 7-(4-chlorophenyl)-1-methyl-N—((R)-1-phenylethyl)-6,7-dihydro-5H-benzo[f][1,2,3]triazolo[1,5-d][1,4]diazepine-9-carboxamide] | – | – | – | – | < 1000 | < 1000 | < 100 |
| Cc1nnn2c1-c1ccc(-c3cc[nH]n3)cc1N(c1ccc(Cl)cc1)CC2 [Example 10, 7-(4-Chlorophenyl)-1-methyl-9-(1H-pyrazol-3-yl)-6,7-dihydro-5H-benzo[f][1,2,3]triazolo[1,5-d][1,4]diazepine] | < 100 | < 100 | – | – | < 1000 | < 1000 | < 100 |
| COC(=O)c1ccc2c(c1)N(c1ccc(Cl)cc1)CCn1nnc(C)c1-2 [Example 31, methyl 7-(4-chlorophenyl)-1-methyl-5,6-dihydrotriazolo[1,5-d][1,4]benzodiazepine-9-carboxylate] | – | – | – | – | < 1000 | < 1000 | – |
| Cc1nnn2c1-c1ccc(-c3ccc(N)nc3)cc1N(c1ccc(Cl)cc1)CC2 [Example 8, 5-(7-(4-Chlorophenyl)-1-methyl-6,7-dihydro-5H-benzo[f][1,2,3]triazolo[1,5-d][1,4]diazepin-9-yl)pyridin-2-amine] | < 100 | < 100 | – | – | < 1000 | < 1000 | < 100 |
| Cc1nnn2c1-c1ccccc1N(c1ccc(Cl)cc1)CC2CCO (stereo not shown) [Example 21, 2-(7-(4-chlorophenyl)-1-methyl-6,7-dihydro-5H-benzo[f][1,2,3]triazolo[1,5-d][1,4]diazepin-5-yl)ethanol] | < 100 | < 100 | < 100 | 100 to 1000 | 1000 to 5000 | – | < 100 |
| Cc1ccc(-c2ccc3c(c2)N(c2ccc(Cl)cc2)CCn2nnc(C)c2-3)cn1 [Example 7, 7-(4-Chlorophenyl)-1-methyl-9-(6-methylpyridin-3-yl)-6,7-dihydro-5H-benzo[f][1,2,3]triazolo[1,5-d][1,4]diazepine] | < 100 | < 100 | – | – | < 1000 | < 1000 | < 100 |

Further lines, with some results ahead:

| IC50 (BRD-4 (Domain 1)) [nM] | IC50 (BRD-4 (Domain 2)) [nM] | IC50 (BRD-2 (Domain 2)) [nM] | IC50 (BRD-2 (Domain 1)) [nM] | SMILES | IC50 (HL-60) [nM] | IC50 (MV4; 11) [nM] | IC50 (BRD-3 (Domain 1)) [nM] |
| --- | --- | --- | --- | --- | --- | --- | --- |
| < 100 | < 100 | < 100 | < 100 | CONC(=O)c1ccc2c(c1)N(c1ccc(Cl)cc1)CCn1nnc(C)c1-2 [Example 46, 7-(4-chlorophenyl)-N-methoxy-1-methyl-6,7-dihydro-5H-benzo[f][1,2,3]triazolo[1,5-d][1,4]diazepine-9-carboxamide] | < 1000 | < 1000 | – |
| – | – | < 100 | 100 to 1000 | Cc1nnn2c1-c1ccc(C(=O)NC(c3ccccc3)c3ccccc3)cc1N(c1ccc(Cl)cc1)CC2 [Example 38, N-benzhydryl-7-(4-chlorophenyl)-1-methyl-6,7-dihydro-5H-benzo[f][1,2,3]triazolo[1,5-d][1,4]diazepine-9-carboxamide] | – | – | < 100 |
| < 100 | < 100 | < 100 | 100 to 1000 | Cc1nnn2c1-c1ccccc1N(c1cccc(Br)c1)CC2 [Example 22, 7-(3-Bromophenyl)-1-methyl-6,7-dihydro-5H-benzo[f][1,2,3]triazolo[1,5-d][1,4]diazepine] | 1000 to 5000 | – | < 100 |
| 100 to 1000 | 100 to 1000 | 100 to 1000 | 100 to 1000 | Cc1nnn2c1-c1ccc(CCN3CCOCC3)cc1N(c1ccc(Cl)cc1)CC2 [Example 30, 4-(2-(7-(4-chlorophenyl)-1-methyl-6,7-dihydro-5H-benzo[f][1,2,3]triazolo[1,5-d][1,4]diazepin-9-yl)ethyl)morpholine] | 1000 to 5000 | – | 100 to 1000 |
| < 100 | < 100 | < 100 | < 100 | Cc1nnn2c1-c1ccccc1N(c1cccc(C(O)CO)c1)CC2 (stereo not shown) [Example 24, 1-(3-(1-methyl-5H-benzo[f][1,2,3]triazolo[1,5-d][1,4]diazepin-7(6H)-yl)phenyl)ethane-1,2-diol] | 1000 to 5000 | – | < 100 |
| < 100 | < 100 | < 100 | < 100 | Cc1nnn2c1-c1ccc(C(=O)NOCCO)cc1N(c1ccc(Cl)cc1)CC2 [Example 45, 7-(4-Chlorophenyl)-N-(2-hydroxyethoxy)-1-methyl-6,7-dihydro-5H-benzo[f][1,2,3]triazolo[1,5-d][1,4]diazepine-9-carboxamide] | < 1000 | < 1000 | – |
| < 100 | < 100 | – | – | Cc1nnn2c1-c1ccc(Cn3cccn3)cc1N(c1ccc(Cl)cc1)CC2 [Example 20, 9-((1H-pyrazol-1-yl)methyl)-7-(4-chlorophenyl)-1-methyl-6,7-dihydro-5H-benzo[f][1,2,3]triazolo[1,5-d][1,4]diazepine] | – | – | < 100 |
| < 100 | < 100 | < 100 | 100 to 1000 | C=Cc1cccc(N2CCn3nnc(C)c3-c3ccccc32)c1 [Example 23, 1-Methyl-7-(3-vinylphenyl)-6,7-dihydro-5H-benzo[f][1,2,3]triazolo[1,5-d][1,4]diazepine] | 1000 to 5000 | – | < 100 |
| < 100 | < 100 | < 100 | < 100 | Cc1nnn2c1-c1ccc(C(=O)N[C@@H](C)c3ccc(F)cc3)cc1N(c1ccccc1)CC2 [Example 43] | < 1000 | < 1000 | – |
| < 100 | < 100 | – | – | Cc1nnn2c1-c1ccc(C(=O)NS(C)(=O)=O)cc1N(c1ccc(Cl)cc1)CC2 [Example 41, 7-(4-chlorophenyl)-1-methyl-N-(methylsulfonyl)-6,7-dihydro-5H-benzo[f][1,2,3]triazolo[1,5-d][1,4]diazepine-9-carboxamide] | 1000 to 5000 | < 1000 | – |
